Values quoted from earlier work, collected in patent US20070037740A1, “Combination therapy with glatiramer acetate and alphacalcidol for the treatment of multiple sclerosis” (priority 2003, published 2007).

Experiments:
[1] = tested on: multiple sclerosis
[2] = tested on: murine experimental autoimmune encephalomyelitis (EAE)
[3] = daily subcutaneous injections, 20 mg/injection

L-glutamic acid polymer with L-alanine, L-lysine and L-tyrosine, acetate (salt) [glatiramer acetate]
appearance of "black holes" [1, 3]: reduce | appearance of new lesions by magnetic resonance imaging (MRI) [1, 3]: reduce | progression of disability [1, 3]: reduce | relapse rates [1, 3]: reduce | effective in treating multiple sclerosis (MS) ([1]; in vivo): effective

C=C1/C(=C\C=C2/CCC[C@]3(C)[C@@H]([C@H](C)CCCC(C)(C)O)CC[C@@H]23)C[C@@H](O)C[C@@H]1O [1α,25-dihydroxycholecalciferol]
progression of murine EAE ([2]; administered after the induction of EAE): prevents the progression | development of murine EAE ([2]; mouse, in vivo): prevents the development
